Measurements published in patent publication US6893846B2, “Primers for use in detecting beta-lactamases” (priority 1998, dated 2005).
Converted amounts (≈) assume the structure as drawn. Where two headings read alike, the source gives them in different places.

Experiments:
K. pneumoniae 225 [1] = assay: NCCLS microdilution susceptibility test; assay type: cell-based, Klebsiella pneumoniae; settings: Klebsiella pneumoniae, 225
K. pneumoniae 225 [2] = assay: NCCLS disk diffusion assay; assay type: cell-based, Klebsiella pneumoniae; settings: disk diffusion, Kleb 225
K. pneumoniae = assay: Agar dilution MIC, South African isolates; assay type: cell-based, Klebsiella pneumoniae; settings: tzp with tazobactam 4 μg/ml
Excerpt: (§1) The strains were provided in response to a request for all strains of Enterobacteriaceae, lacking inducible beta-lactamases, that were intermediate or resistant to cefotaxime or ceftazidime. […]

E. coli = assay: Agar dilution MIC, South African isolates; assay type: cell-based, Escherichia coli; settings: tzp with tazobactam 4 μg/ml
Excerpt: as §1

P. mirabilis = assay: Agar dilution MIC, South African isolates; assay type: cell-based, Proteus mirabilis; settings: 4 strains, tzp with tazobactam 4 μg/ml
Excerpt: During a period of three months in 1993, […] strains of Klebsiella pneumoniae (13 blood, 5 burn, 7 wound, 11 tracheal isolates), 4 strains of Proteus mirabilis (all wound isolates) and 4 strains of Escherichia coli (1 blood, 1 burn, 2 wound isolates) were collected from patients at the following medical centers in South Africa: Tygerberg Hospital near Cape Town, King Edward VIII Hospital in Durban, Chris Hani Baragwanath Hospital in Soweto and Pretoria Academic Hospital in Pretoria. The strains were provided in response to a request for all strains of Enterobacteriaceae, lacking inducible beta-lactamases, that were intermediate or resistant to cefotaxime or ceftazidime. […] Therefore accurate prevalence data were not obtained.
Antibiotic susceptibility was determined by standard disk diffusion (NCCLS Standard M2-T4, 1994) and agar dilution (NCCLS Standard M7-T2, 1994) procedures. Standard powders of antimicrobial agents were kindly provided by the following companies: piperacillin and tazobactam (Lederle Laboratories, Wayne, N.J.); cefoxitin and imipenem, (Merck, Rathway, N.J.); cefotaxime, (Hoechst-Roussel Pharmaceuticals Inc., Somerville, N.J.); ceftazidime, (Glaxo Group Research Ltd., Greenford, England); aztreonam and cefepime, (Bristol-Myers Squibb, Princeton, N.J.). Disks for agar diffusion were obtained from Becton Dickinson Microbiology Systems (Cockeysville, Md.). For quality control purposes, the following quality control strains were run simultaneously with the test organisms E. coli ATCC 25922, Pseudomonas aeruginosa ATCC 27853, E. coli ATCC 35218, and Staphylococcus aureus ATCC 29213. Throughout this study, results were interpreted using NCCLS criteria for disk diffusion (NCCLS Standard M2-T4, 1994) and broth dilution (NCCLS Standard M7-T2, 1994).

E. aerogenes [3] = assay type: cell-based, Enterobacter aerogenes
Procedure: Antibiotic susceptibilities were determined by standard disk-diffusion (NCCLS Standard M2-A6) and agar-dilution (NCCLS Standard M7-A4) procedures. Disks were obtained from Becton Dickinson Microbiology Systems (Cockeysville, Md.). […] Throughout this study, results were interpreted using NCCLS criteria for disk diffusion (NCCLS M2-A6) and broth dilution (NCCLS M7-A4).

E. aerogenes [4] = assay: Vitek automated susceptibility system; assay type: cell-based, Enterobacter aerogenes; settings: the 31 selected E. aerogenes strains
Excerpt: Among all E. aerogenes recovered from clinical specimens during an eighteen month period (September 1993 to March 1995), thirty-one E. aerogenes strains showing a resistance phenotype different from that observed with derepressed mutants normally encountered at the Hunter Holmes McGuire Medical Center, Richmond, Va. were selected for this study. The strains selected were intermediate to ceftriaxone but resistant to ceftazidime when tested with the Vitek automated susceptibility system (bioMerieux Vitek, St. Louis, Mo.). Derepressed mutants previously isolated from this center were usually resistant to both ceftriaxone and ceftazidime.

[5] = test system: E. coli C600N transconjugants; assay: Susceptibility of transconjugants; assay type: cell-based, Escherichia coli; settings: E. coli C600N transconjugants of E. aerogenes 187, 200, 220, 184
Procedure: Antibiotic susceptibilities were determined by standard disk-diffusion (NCCLS Standard M2-A6) and agar-dilution (NCCLS Standard M7-A4) procedures. Disks were obtained from Becton Dickinson Microbiology Systems (Cockeysville, Md.). Disk-diffusion susceptibilities to the following antibiotics were determined, ampicillin; amoxicillin clavulanic acid; aztreonam; cefazolin; cefoxitin; cefuroxime; cefotaxime; ceftriaxone; ceftazidime; cefepime; imipenem; gentamicin; trimethoprim/sulfamethoxazole and ciprofloxacin. […] The following quality control strains were run simultaneously with the test organisms Escherichia coli ATCC 25922, Pseudomonas aeruginosa ATCC 27853, and E. coli ATCC 35218. Throughout this study, results were interpreted using NCCLS criteria for disk diffusion (NCCLS M2-A6) and broth dilution (NCCLS M7-A4).
[…]. The filter paper mating technique with overnight incubation at 37° C. were performed as described previously (Philippon et al., Antimicrob. Agents Chemother., 33:1131-1136 (1989)). Transconjugants were selected on LB (Luria Bertani) agar [Difco (Detroit, Mich.)] plates containing 12 μg per ml nalidixic acid and 20 μg per ml ampicillin.

[6] = test system: E. coli HB101 transformant (17 kb plasmid); settings: disk diffusion, Tr (17 kb) = transformant E. coli HB101
[7] = test system: E. coli C600 transconjugant; settings: disk diffusion, Tc = transconjugate E. coli C600
K. pneumoniae 225 [8] = settings: test drug disk around amoxicillin-clavulanate disk
K. pneumoniae 225 [9] = assay: Three-dimensional test (enzymatic inactivation of antibiotics); settings: beta-lactamase-mediated hydrolysis by K. pneumoniae 225, lawn E. coli ATCC 25922
[10] = molecular target: single beta-lactamase in K. pneumoniae cell extracts (Escherichia coli, UniProt P62593, E102K/R162S); assay: Spectrophotometric hydrolysis assay on crude beta-lactamase extracts; settings: K. pneumoniae Pit 16 extract, beta-lactamase pI 5.6; 100 μM substrate
[11] = molecular target: single beta-lactamase in K. pneumoniae cell extracts (Klebsiella pneumoniae, UniProt P0AD64, E235K/G234S); assay: as above; settings: K. pneumoniae Pit 82 extract, beta-lactamase pI 8.2; 100 μM substrate
[12] = molecular target: single beta-lactamase in K. pneumoniae cell extracts (Klebsiella pneumoniae, UniProt P0AD64, G234S); assay: as above; settings: K. pneumoniae Pit 100 extract, beta-lactamase pI 7.6; 100 μM substrate
[13] = molecular target: single beta-lactamase in E. coli cell extracts (Escherichia coli, UniProt P62593, E102K/R162S); assay: as above; settings: E. coli Pit 64 extract, beta-lactamase pI 5.6; 100 μM substrate
[14] = molecular target: single beta-lactamase in P. mirabilis cell extracts (Escherichia coli, UniProt P62593, E102K/R162S); assay: as above; settings: P. mirabilis Pit 85 extract, beta-lactamase pI 5.6; 100 μM substrate
E. aerogenes [15] = assay: Double-disk potentiation test; assay type: cell-based, Enterobacter aerogenes; settings: all the E. aerogenes strains selected; potentiation by clavulanic acid
Excerpt: This test described by Jarlier et al., Rev. Infect. Dis.

[16] = molecular target: beta-lactamases in sonic extracts of K. pneumoniae (Escherichia coli, UniProt P62593)
[17] = molecular target: beta-lactamases in sonic extracts of K. pneumoniae (Klebsiella pneumoniae, UniProt P0AD64); settings: Kpn1, beta-lactamase pI 7.6 (SHV-1)
[18] = molecular target: beta-lactamases in sonic extracts of K. pneumoniae (Klebsiella pneumoniae, UniProt P0AD64, E235K/G234S); settings: Kpn2, beta-lactamase pI 8.2 (SHV-5)
[19] = test system: beta-lactamases in sonic extracts of K. pneumoniae
[20] = molecular target: beta-lactamases in sonic extracts of E. coli (Escherichia coli, UniProt P62593); assay: Isoelectric focusing overlay: cefotaxime hydrolysis and inhibitors
[21] = test system: beta-lactamases in sonic extracts of E. coli; assay: as above
[22] = test system: beta-lactamases in sonic extracts of E. aerogenes; assay: Isoelectric focusing overlay: cefotaxime hydrolysis, inhibitors, induction
[23] = Kpn2, beta-lactamase pI 5.4 (TEM-1)
[24] = Kpn3, beta-lactamase pI 5.4 (TEM-1)
[25] = Kpn1, beta-lactamase pI 5.6 (TEM-10 or 26)
[26] = Kpn2, beta-lactamase pI 7.6 (SHV-2 or 8)
[27] = Kpn3, beta-lactamase pI 8.0 (AmpC)
[28] = Ec1, beta-lactamase pI 5.4 (TEM-1)
[29] = Ec2, beta-lactamase pI 5.4 (TEM-1)
[30] = Ec1, beta-lactamase pI 5.6 (TEM-10 or 26)
[31] = Ec2, beta-lactamase pI 7.6 (SHV-2 or 8)
[32] = SHV-3 strain (1), Bush group 1 enzyme pI 8.3
[33] = SHV-3 strain (1), Bush group 2be enzyme pI 6.9
[34] = SHV-4 strains (29), Bush group 1 enzyme pI 8.3
[35] = SHV-4 strains (29), Bush group 2be enzyme pI 7.8
[36] = SHV-5 strain (1), Bush group 1 enzyme pI 8.3
[37] = SHV-5 strain (1), Bush group 2Be enzyme pI 8.0

| Compound | MIC (K. pneumoniae 225 [1]) | Zone Size (K. pneumoniae 225 [2]) | Vitek susceptibility result (E. aerogenes [4]) | Zone Size [6] | Zone Size [7] | clavulanate double-disk potentiation test (K. pneumoniae 225 [8]) | three dimensional test (K. pneumoniae 225 [9]) | Inhibited by [16, 23] | Inhibited by [16, 24] | Inhibited by [17] | Inhibited by [18] | Inhibited by [19, 25] | Inhibited by [19, 26] | Inhibited by [19, 27] | Inhibited by [20, 28] | Inhibited by [20, 29] | Inhibited by [21, 30] | Inhibited by [21, 31] | Inhibited by [22, 32] | Inhibited by [22, 33] | also measured |
| --- | --- | --- | --- | --- | --- | --- | --- | --- | --- | --- | --- | --- | --- | --- | --- | --- | --- | --- | --- | --- | --- |
| CC(C)(O/N=C(\C(=O)N[C@@H]1C(=O)N2C(C(=O)[O-])=C(C[n+]3ccccc3)CS[C@H]12)c1csc(N)n1)C(=O)O [ceftazidime] | > 64 µg/mL | 8 mm | resistant | 33 mm | 7 mm | positive | positive | – | – | – | – | – | – | – | – | – | – | – | – | – | MIC range (K. pneumoniae; resistance phenotype Kpn1, 8 strains): >128 µg/mL; MIC range (K. pneumoniae; resistance phenotype Kpn2, 28 strains): 4 to 128 µg/mL; MIC range (K. pneumoniae; resistance phenotype Kpn3 (K. pneumoniae Pit 68), 1 strain, listed as caz): 4 µg/mL; MIC range (E. coli; resistance phenotype Ec1, 3 strains): >128 µg/mL; MIC range (E. coli; resistance phenotype Ec2, 1 strain): 4 µg/mL; MIC range (P. mirabilis): 16 to 64 µg/mL; MIC range (E. aerogenes [3]; 1 E. aerogenes strain with Bush group 1 and group 2be (SHV-3) enzymes): 4 µg/mL (≈ 7.32 µM); MIC range (E. aerogenes [3]; 1 E. aerogenes strain with Bush group 1 and group 2be (SHV-5) enzymes): 32 µg/mL (≈ 58.5 µM); MIC range (E. aerogenes [3]; 29 E. aerogenes strains with Bush group 1 and group 2be (SHV-4) enzymes): 8 to 32 µg/mL; susceptibility by MIC (E. aerogenes [3]; all E. aerogenes strains): decreased susceptibility; susceptibility after transfer of plasmids encoding SHV beta-lactamase genes [5]: decreased susceptibility; Hydrolysis [10]: 3 nmol of substrate hydrolyzed/m; Hydrolysis [11]: 0.2 nmol of substrate hydrolyzed/m; Hydrolysis [12]: 0.1 nmol of substrate hydrolyzed/m; Hydrolysis [13]: 2 nmol of substrate hydrolyzed/m; Hydrolysis [14]: 1 nmol of substrate hydrolyzed/m |
| CO/N=C(\C(=O)N[C@@H]1C(=O)N2C(C(=O)O)=C(CSc3nc(=O)c(=O)[nH]n3C)CS[C@H]12)c1csc(N)n1 [ceftriaxone] | 16 µg/mL (≈ 28.9 µM) | 13 mm | intermediate | 32 mm | 12 mm | positive | positive | – | – | – | – | – | – | – | – | – | – | – | – | – | double disk test (E. aerogenes [15]): positive |
| O=C(O)[C@H]1/C(=C/CO)O[C@@H]2CC(=O)N21 [clavulanate] | – | – | – | – | – | – | – | Yes | Yes | Yes | No | Yes | Yes | No | Yes | Yes | Yes | Yes | no | yes | Inhibited by [22, 34]: no; Inhibited by [22, 35]: yes; Inhibited by [22, 36]: no; Inhibited by [22, 37]: yes |
| Cc1onc(-c2ccccc2Cl)c1C(=O)N[C@@H]1C(=O)N2[C@@H]1SC(C)(C)[C@@H]2C(=O)O [cloxacillin] | – | – | – | – | – | – | – | No | No | No | Yes | No | No | Yes | No | No | No | No | yes | no | Inhibited by [22, 34]: yes; Inhibited by [22, 35]: no; Inhibited by [22, 36]: yes; Inhibited by [22, 37]: no |
